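The compound was tested at five concentrations on cells cultured in 96-well plates, with a 48-hour exposure period. Abbreviation: GI50, concentration required for 50% inhibition of growth.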 Calls of active or inactive are those of the source. Rule as the data show it: active = GI50 up to about 1.1 µM and inactive = higher.
Experiments:
Test in all cases: NCI-60 cell line screen, 48 h
[1] = tested on: DU-145
[2] = tested on: SNB-75
[3] = tested on: SK-OV-3
[4] = tested on: UACC-257
[5] = tested on: LOX IMVI
[6] = tested on: ACHN
[7] = tested on: HOP-92
[8] = tested on: MDA-N
[9] = tested on: PC-3
[10] = tested on: NCI-H460
[11] = tested on: CCRF-CEM
[12] = tested on: MDA-MB-435
[13] = tested on: A549
[14] = tested on: OVCAR-3
[15] = tested on: Malme-3M
[16] = tested on: MDA-MB-231
[17] = tested on: SK-MEL-5
[18] = tested on: OVCAR-8
[19] = tested on: UACC-62
[20] = tested on: SR

Row | SMILES | GI50 [1] | GI50 [2] | GI50 [3] | GI50 [4] | GI50 [5] | GI50 [6] | GI50 [7] | GI50 [8] | GI50 [9] | GI50 [10] | GI50 [11] | GI50 [12] | GI50 [13] | GI50 [14] | GI50 [15] | GI50 [16] | GI50 [17] | GI50 [18] | GI50 [19] | GI50 [20]
1 | CC[N+]1(C)CCC(O)(/C=C/c2ccc(Cl)cc2)C(C(=O)/C=C/c2ccc(Cl)cc2)C1 (centres undefined) | 12.1 µM (inactive) | 11.3 µM (inactive) | 18 µM (inactive) | 14.5 µM (inactive) | 2.71 µM (inactive) | 3.6 µM (inactive) | 3.23 µM (inactive) | 3.45 µM (inactive) | 10.7 µM (inactive) | 4.48 µM (inactive) | 1.08 µM (active) | 3.85 µM (inactive) | 13.9 µM (inactive) | 11.5 µM (inactive) | 6.62 µM (inactive) | 4.81 µM (inactive) | 10.5 µM (inactive) | 4.59 µM (inactive) | 13.8 µM (inactive) | 
2 | O=[N+]([O-])c1ccc(Cl)c2c([N+](=O)[O-])cccc12 |  | 5.38 µM (inactive) | 2.28 µM (inactive) |  | 3.71 µM (inactive) |  | 3.96 µM (inactive) | 2.18 µM (inactive) | 7.85 µM (inactive) |  | 2.36 µM (inactive) | 3.1 µM (inactive) | > 10 µM (inactive) | 3.49 µM (inactive) | 5.82 µM (inactive) |  | 2.33 µM (inactive) | 3.5 µM (inactive) | 5.46 µM (inactive) | 3.95 µM (inactive)
3 | CC1CC[C@@]2(OC1)O[C@H]1[C@H](O)[C@H]3[C@@H]4CC[C@H]5C[C@@H](OC6OC(CO)C(OC7OC(CO)C(O)C(OC8OCC(O)C(O)C8O)C7OC7OC(CO)C(O)C(O)C7OC7OC(CO)C(O)C(O)C7O)C(O)C6O)[C@H](O)C[C@]5(C)[C@H]4CC[C@]3(C)[C@H]1[C@@H]2C (some centres undefined) | > 10 µM (inactive) | 3.1 µM (inactive) |  | > 10 µM (inactive) | > 10 µM (inactive) | > 10 µM (inactive) | > 10 µM (inactive) | > 10 µM (inactive) | 2.7 µM (inactive) | > 10 µM (inactive) | 0.942 µM (active) | > 10 µM (inactive) | 3.47 µM (inactive) | 2.85 µM (inactive) | > 10 µM (inactive) | 2.61 µM (inactive) | > 10 µM (inactive) | > 10 µM (inactive) | > 10 µM (inactive) | 
4 | CC(C)C1OC(N)=C(C#N)C1(C#N)C#N (centres undefined) | 51.3 µM (inactive) | 33.8 µM (inactive) | > 100 µM (inactive) | 17.1 µM (inactive) | 28.1 µM (inactive) | 36.9 µM (inactive) | 31.3 µM (inactive) | 38.2 µM (inactive) | > 100 µM (inactive) |  | 10.9 µM (inactive) | 29.6 µM (inactive) | > 100 µM (inactive) |  | > 100 µM (inactive) | > 100 µM (inactive) | 33.3 µM (inactive) | 41.9 µM (inactive) | 32.5 µM (inactive) | 
5 | O=C(O)Cc1ccc(Oc2nc3ccccc3nc2C(=O)O)cc1 | > 100 µM (inactive) | > 100 µM (inactive) | > 100 µM (inactive) | > 100 µM (inactive) | > 100 µM (inactive) | > 100 µM (inactive) | 79.1 µM (inactive) |  | > 100 µM (inactive) | > 100 µM (inactive) | > 100 µM (inactive) | 12.8 µM (inactive) | > 100 µM (inactive) | > 100 µM (inactive) |  | > 100 µM (inactive) | > 100 µM (inactive) | > 100 µM (inactive) | > 100 µM (inactive) | 0.0187 µM (active)
6 | Clc1ccccc1/C=C\C1(c2ccccc2)OCCO1 | 16.7 µM (inactive) | 19 µM (inactive) | 29.8 µM (inactive) | 16.7 µM (inactive) | 5.36 µM (inactive) | 17.3 µM (inactive) | 28.9 µM (inactive) | 15.6 µM (inactive) |  | 16.8 µM (inactive) | 19.7 µM (inactive) | 15.6 µM (inactive) | > 100 µM (inactive) | 17.7 µM (inactive) |  | 12.7 µM (inactive) | 19.8 µM (inactive) | 17.7 µM (inactive) | 15.7 µM (inactive) | 3.58 µM (inactive)
7 | CCOC(=O)/C(=C\NCc1ccc2c(c1)OCO2)c1nc2ccccc2[nH]1 | > 100 µM (inactive) | 77.3 µM (inactive) | > 100 µM (inactive) | 64.6 µM (inactive) | 42.2 µM (inactive) | 38.4 µM (inactive) | 71.9 µM (inactive) | 75 µM (inactive) | 50 µM (inactive) | 24.9 µM (inactive) | 42 µM (inactive) | 48.6 µM (inactive) | 35.4 µM (inactive) | 43 µM (inactive) | 41.7 µM (inactive) |  | 25.8 µM (inactive) | 43 µM (inactive) | 26.9 µM (inactive) | 48.1 µM (inactive)
8 | CN1N=C(c2ccncc2)OC1c1ccccc1F (centres undefined) | > 100 µM (inactive) |  | > 100 µM (inactive) |  | > 100 µM (inactive) | > 100 µM (inactive) | > 100 µM (inactive) | > 100 µM (inactive) | > 100 µM (inactive) | > 100 µM (inactive) | > 100 µM (inactive) | > 100 µM (inactive) | > 100 µM (inactive) | > 100 µM (inactive) |  | > 100 µM (inactive) | > 100 µM (inactive) | > 100 µM (inactive) | > 100 µM (inactive) | 
9 | NC(=S)NS(=O)(=O)c1ccc(F)cc1 | > 100 µM (inactive) | > 100 µM (inactive) | > 100 µM (inactive) | > 100 µM (inactive) | > 100 µM (inactive) | > 100 µM (inactive) | > 100 µM (inactive) | > 100 µM (inactive) | > 100 µM (inactive) | > 100 µM (inactive) | > 100 µM (inactive) | > 100 µM (inactive) | > 100 µM (inactive) | > 100 µM (inactive) | > 100 µM (inactive) | > 100 µM (inactive) | > 100 µM (inactive) | > 100 µM (inactive) | > 100 µM (inactive) | 
10 | O=C(/C=C/c1ccc2ccccc2c1)NCc1ccc(C(=O)NCc2ccccc2)cc1 | > 100 µM (inactive) | 19.6 µM (inactive) | > 100 µM (inactive) | > 100 µM (inactive) | > 100 µM (inactive) | > 68.7 µM (inactive) | > 100 µM (inactive) |  | > 100 µM (inactive) |  | > 93.3 µM (inactive) | > 100 µM (inactive) | 65.5 µM (inactive) | > 80.5 µM (inactive) | > 35.8 µM (inactive) | > 100 µM (inactive) | 98.9 µM (inactive) | 30.4 µM (inactive) | 97.9 µM (inactive) | > 100 µM (inactive)
11 | CC1(C)CC(=O)C(CC(C(=O)C(=O)Nc2cc(C(F)(F)F)ccc2Cl)C(=O)c2ccco2)C(=O)C1 (centres undefined) | > 100 µM (inactive) |  | > 100 µM (inactive) | > 100 µM (inactive) | > 100 µM (inactive) | > 100 µM (inactive) | > 100 µM (inactive) | > 100 µM (inactive) | > 100 µM (inactive) | > 100 µM (inactive) | > 100 µM (inactive) | > 100 µM (inactive) | > 100 µM (inactive) | > 100 µM (inactive) | > 100 µM (inactive) | > 100 µM (inactive) | > 100 µM (inactive) | > 100 µM (inactive) | > 100 µM (inactive) | 
12 | CC(=O)c1cc(C)n2c1CS[C@@H]2c1ccccc1 | 29.1 µM (inactive) | 65.8 µM (inactive) | > 100 µM (inactive) | > 100 µM (inactive) | 26.3 µM (inactive) | 68.2 µM (inactive) | 20.2 µM (inactive) |  | 33.3 µM (inactive) |  | 16.3 µM (inactive) | 27.3 µM (inactive) | 53 µM (inactive) | 39.6 µM (inactive) | > 100 µM (inactive) | 43.3 µM (inactive) | 32.2 µM (inactive) | 70.8 µM (inactive) |  | 27 µM (inactive)
13 | CC(C)(C)OC(=O)CN1CCNCCN(CC(=O)OC(C)(C)C)CC1 | > 100 µM (inactive) | 12.8 µM (inactive) | > 100 µM (inactive) | > 100 µM (inactive) | > 100 µM (inactive) | > 100 µM (inactive) | > 100 µM (inactive) | > 100 µM (inactive) | > 100 µM (inactive) | > 100 µM (inactive) | > 100 µM (inactive) |  | > 100 µM (inactive) | > 100 µM (inactive) | 0.731 µM (active) | > 100 µM (inactive) | > 100 µM (inactive) | > 100 µM (inactive) | > 100 µM (inactive) | > 100 µM (inactive)
14 | O=C(Nc1ccc(N2C(=O)CSC2c2ccccc2O)cc1)c1ccc(N2C(=O)CSC2c2ccccc2O)cc1 (centres undefined) | > 100 µM (inactive) | 27.7 µM (inactive) | 23 µM (inactive) | > 100 µM (inactive) | 75.3 µM (inactive) | 35.6 µM (inactive) | 26.7 µM (inactive) | 83.8 µM (inactive) | 43.3 µM (inactive) | 83.8 µM (inactive) | > 100 µM (inactive) | 61 µM (inactive) | 40.7 µM (inactive) | 84.7 µM (inactive) | 98.4 µM (inactive) | 44 µM (inactive) | 77.4 µM (inactive) | 51.3 µM (inactive) | 29.1 µM (inactive) | 
15 | COc1cc(/C=C2/C(=O)N(C(=O)c3ccccc3O)N=C2C)cc(OC)c1OC | 2.44 µM (inactive) | 1.84 µM (inactive) | 2.47 µM (inactive) | 4.9 µM (inactive) | 2.09 µM (inactive) | 0.92 µM (active) | 1.07 µM (active) | 1.02 µM (active) | 6.93 µM (inactive) | 1.43 µM (inactive) | 1.77 µM (inactive) | 0.863 µM (active) | 0.439 µM (active) | 1.53 µM (inactive) | 8.17 µM (inactive) | 23.5 µM (inactive) | 2.88 µM (inactive) | 1.67 µM (inactive) | 0.405 µM (active) | 

From ChEMBL document CHEMBL1201862, “PubChem BioAssay data set” (2004)
